Values joined by “and” are separate entries in the source; they are usually repeats but may differ in a detail not shown here. Equal entries are not always repeated. Where two headings read alike, the source gives them in different places.
Tests used:
[1] = Single oral dose plasma pharmacokinetics and elimination of APAZA and metabolites in mice; format: in vivo, male CD-1 mice
Procedure: Initial single dose pharmacokinetic studies with the APAZA™ compound have been conducted in dogs and mice. A study was completed in order to determine the plasma pharmacokinetics and elimination of the APAZA™ compound and its metabolites (5-ASA, 4-APAA, 5-aceASA and 4-aceAPAA) following single oral dose administration to male CD-1 mice. […] When normalized to molar values, the Cmax values for all the APAZA™ metabolites were less than APAZA™; the values ranged from 2.68 to 13.8 μM. However, the normalized APAZA™ AUC∞ value was not greater than all the other metabolites; these values ranged from […]. […] The Tmax values for APAZA™ and its metabolites were 1 hour and 4 hours, respectively.

DSS induced colitis = assay: Dextran sulfate sodium (DSS) colitis in the rat; format: in vivo, Sprague-Dawley rats; details: oral gavage bid
Procedure: The effectiveness of APAZA™ and sulfasalazine in ameliorating intestinal inflammation in a model of dextran sulfate sodium (DSS) induced colitis in Sprague-Dawley rats was determined. Thirty-six male Sprague-Dawley rats that were 7-8 weeks old and weighed 240-260 g were studied. […] After completion of the treatment period, rats were euthanized and the efficacy of the test drugs in inhibiting colitis was assessed by the following: • Disease Activity Index Scoring: • Body weight • Colon wet weight: body weight ratios • Colonic Myeloperoxidase (MPO) activity • Histopathological changes of the colon

DNBS colitis [2] = assay: Study AA-PH-003: oral and rectal APAZA and sulfasalazine in DNBS colitis; format: in vivo, male Lewis rats; parameters: Average Diarrhea Score Day 3: scale not given here; details: for Colonic Inflammation Scores: scale 0-2
Procedure: Study AA-PH-003 was designed to evaluate the anti-inflammatory efficacy of oral and rectal doses of APAZATM and sulfasalazine in the DNBS colitis model in rats. […] Thirty-five adult male Lewis rats (body weight 200-250 g) were studied. […] Animal body weights and incidence of diarrhea were recorded daily. […] Animals in the DNBS groups and the parallel deionized water group were sacrificed on day 5. Laparotomies and colectomies were performed and animals were scored for the presence and severity of intestinal adhesions, strictures, inflammation, and ulceration. Colon: body weight ratios were determined and colon histopathology was performed.

[3] = Single oral dose pharmacokinetics of APAZA in dogs; format: in vivo, Beagle dogs; details: for AUC(0-t) / Cmax / Tmax: Beagle, dog, plasma, single oral dose 1000 mg/kg; for AUC(0-t): read-out: area under the plasma concentration-time curve (AUC0-t); for Cmax: read-out: mean maximum plasma concentration (Cmax); for Tmax: read-out: time to maximum plasma concentration (tmax)
DNBS colitis [4] = assay: DNBS colitis in the rat, equimolar rectal doses of 5-ASA, 4-APAA and mixture; format: in vivo, male Lewis rats; details: for average severity score for necrosis, Adventitia / average severity score for necrosis, Mucosa / average severity score for necrosis, Muscularis / average severity score for necrosis, Submucosa: colon histology, scale 1-5, intrarectal twice daily for four days; for reduction in colon:body weight [% BW] / reduction of adhesion scores: rectal b.i.d. 4 days; for reduction in colon:body weight [% BW]: 5-ASA 50 mg/kg, 4-APAA 49.5 mg/kg, mixture 50+49.5 mg/kg; for reduction of adhesion scores: vs vehicle/DNBS
Excerpt: The purpose of this study was to histologically evaluate and compare the effects of three different therapeutic agents administered intrarectally (twice daily for four days) to male Lewis rats following intrarectal administration of dinitrobenzene sulfonic acid (DNBS). DNBS induced colitis in rats according to an established experimental model (see, for example, Bertran et al., “Intracolonic administration of zileuton, a selective 5-lipoxygenase inhibitor, accelerates healing in a rat model of chronic colitis,” Gut. 38(6):899-904 (1996), and Blau et al., “Relation between colonic inflammation severity and total low-molecular-weight antioxidant profiles in experimental colitis,” Dig Dis Sci. 45(6):1180-1187 (2000), the entire disclosures of which are incorporated herein by reference). SHAM and DNBS groups served as negative and positive controls, respectively.
Trimmed specimens of colon from 27 male rats were tested, including microtoming, and hematoxylin and eosin staining. The resulting 27 slides (1 transverse section per slide) were examined microscopically. Except for one rat from the SHAM group and one rat from the DNBS group, all slides had their labels taped over to facilitate blind reading. Lesions were graded on a scale of 1-5 (1=minimal; 2=mild; 3=moderate; 4=moderately-severe; 5=severe).
Because the pattern of necrosis often varied from section to section, the individual intestinal layers were scored separately.
Dinitrobenzene sulfonic acid (DNBS) colitis was induced (no ether anesthesia) in 4 groups 4 of 6 Lewis rats each. One DNBS group was dosed with vehicle (0.7% methyl cellulose) as well as an additional sham group of 6 animals that received a saline enema instead of DNBS. Intrarectal (ir) dosing was performed in conscious animals b.i.d. for 4 days. Drug treatments were as follows: • 5-aminosalicylic acid (5-ASA): 50 mg/kg • 4-aminophenylacetic acid (4-APAA): 49.5 mg/kg (equimolar to 5-ASA) • Mixture: 5-ASA+4-APAA: 50 mg/kg+49.5 mg/kg
Drugs were suspended in the above mentioned vehicle and staff blinded to drug groups. Daily weights and diarrhea scores were recorded. On the 5th day post-irritant rats were sacrificed, laparotomies performed and scored for intestinal adhesions and strictures; colectomized and colon weights recorded, colons opened longitudinally and inflammation/ulcerations scored.
The anti-inflammatory effects of 3 different treatments were compared in a DNBS model of colitis in 30 male Lewis rats weighing between 218 and 260 grams.
Animals were divided into 5 groups of 6 animals in each group: • 0.7% methylcellulose (vehicle)+normal saline • 0.7% methylcellulose (vehicle)+ethanolic solution of 2,4-dinitrobenzenesulfonic acid (DNBS) 30 mg • 5-ASA at 100 mg/kg·day+DNBS 30 mg/rectally • 4-APAA at 99 mg/kg·day+DNBS 30 mg/rectally • 5-ASA+4-APAA mixture (APAZA™) at 199 mg/kg·day+DNBS 30 mg/rectally
Experimental colitis was induced under light anesthesia (ketamine/xylazine) in 4 of 5 groups by instilling DNBS (30 mg) rectally at a volume of 0.5 mL to fasted rats. Each group of animals received rectal twice daily (bid) doses of either vehicle (0.7% methylcellulose) or test compounds (5-ASA, 4-APAA or APAZA™) for 4 days beginning 24 hours after either the normal saline or DNBS irritant was instilled. Body weight and incidence of diarrhea were recorded daily. Each animal in the 4 DNBS groups and in the single parallel saline group was sacrificed 5 days post irritant. Laparotomies and colectomies were performed and animals were scored for the presence and severity of intestinal adhesions, strictures, inflammation, and ulceration. Colon: body weight ratios were determined and tissue was examined histologically.

[5] = orally + 30 mg DNBS, APAZA 200 mg/kg, sulfasalazine 265.6 mg/kg
[6] = rectally + 30 mg DNBS, APAZA 200 mg/kg, sulfasalazine 265.6 mg/kg

In the case of O=C(O)Cc1ccc(/N=N/c2ccc(O)c(C(=O)O)c2)cc1 [APAZA™, 5-(4-carboxymethyl-phenylazo)-2-hydroxy-benzoic acid], the AUC(0-inf) ([1]; male, CD-1, mouse, in vivo, po) is reported as 7430 ng·h/mL, the Cmax ([1]; male, CD-1, mouse, in vivo, po) is reported as 5930 ng/mL and the Tmax ([1]; male, CD-1, mouse, in vivo, po) is reported as 1 h. For the same compound, the half-life ([1]; male, CD-1, mouse, in vivo, po) was 3.34 h, the “plasma concentration at 24 hours” value ([1]; mouse, in vivo, po) was “below the limit of detection” and the “colon wet weight: body weight ratio, DSS versus DW” value (DSS induced colitis; APAZA 100 mg/kg, sulfasalazine 133 mg/kg) was “no statistically significant difference”. The “Disease Activity Index (DAI) score” value (DSS induced colitis; rats drinking 5% DSS, APAZA 100 mg/kg, sulfasalazine 133 mg/kg) was 0-1, the “colonic MPO activity” value (DSS induced colitis; rats receiving DSS) was “similar” and the “histological changes of the colon” value (DSS induced colitis; rats receiving DSS) was “largely protected”. For the same compound, the “severity of mucosal ulcers” value (DNBS colitis [2]; compared to tissues from placebo and sulfasalazine treated animals) was “less severe”, the “reduction relative to control in net colon: body weight (% BW) ratio” value (DNBS colitis [2]; oral groups) was 23.8% and the “Average Diarrhea Score Day 3” value (DNBS colitis [2]; [5]) was 2. For the same compound, the “Colon Histopathology (# severe lesions)” value (DNBS colitis [2]; [5]) was 2, the “Length of Colonic Inflammation (cm)” value (DNBS colitis [2]; [5]) was 2.5 cm and the “Mean Body Weight” value (DNBS colitis [2]; [5]) was 213.8 g. For the same compound, the “Mean Colon Length (cm)” value (DNBS colitis [2]; [5]) was 12.3 cm, the “Net Colon: Body Weight Ratio” value (DNBS colitis [2]; [5]) was 0.2309 and the “Colonic Inflammation Scores” value (DNBS colitis [2]; [5]) was 1.4. The “Average Diarrhea Score Day 3” value (DNBS colitis [2]; [6]) was 2, the “Length of Colonic Inflammation (cm)” value (DNBS colitis [2]; [6]) was 1.6 cm and the “Mean Body Weight” value (DNBS colitis [2]; [6]) was 218.6 g. For the same compound, the “Mean Colon Length (cm)” value (DNBS colitis [2]; [6]) was 12.4 cm, the “Net Colon: Body Weight Ratio” value (DNBS colitis [2]; [6]) was 0.1983 and the “Colonic Inflammation Scores” value (DNBS colitis [2]; [6]) was 1.3. The AUC(0-t) ([3]; female dogs) was 40800 ng·h/mL, the Cmax ([3]; female dogs) was 2640 ng/mL and the Tmax ([3]; female dogs) was 24 h. The AUC(0-t) ([3]; male dogs) was 95400 ng·h/mL, the Cmax ([3]; male dogs) was 9780 ng/mL and the Tmax ([3]; male dogs) was 15 h. For the same compound, the “plasma levels versus dose” value ([3]; single oral dose, 100 to 1000 mg/kg) was “increased in a dose-related manner”.

For Nc1ccc(O)c(C(=O)O)c1 [5-ASA, 5-amino-2-hydroxy-benzoic acid, reference compound], the “average severity score for necrosis, Adventitia” value (DNBS colitis [4]) was 1.67, the “average severity score for necrosis, Mucosa” value (DNBS colitis [4]) was 4.50 and the “average severity score for necrosis, Muscularis” value (DNBS colitis [4]) was 3.5. For the same compound, the “average severity score for necrosis, Submucosa” value (DNBS colitis [4]) was 4.17, the “reduction in colon:body weight [% BW]” value (DNBS colitis [4]) was ~31% and ~30% and the “reduction of adhesion scores” value (DNBS colitis [4]) was roughly 17%.

For Nc1ccc(CC(=O)O)cc1 [4-APAA, (4-aminophenyl)-acetic acid], the “plasma concentration at 24 hours” value ([1]; single oral dose of APAZA, male CD-1 mice) was “below the limit of detection”, the “average severity score for necrosis, Adventitia” value (DNBS colitis [4]) was 1.67 and the “average severity score for necrosis, Mucosa” value (DNBS colitis [4]) was 4.33. The “average severity score for necrosis, Muscularis” value (DNBS colitis [4]) was 3.17, the “average severity score for necrosis, Submucosa” value (DNBS colitis [4]) was 4.00 and the “reduction in colon:body weight [% BW]” value (DNBS colitis [4]) was ~31% and ~30%. For the same compound, the “reduction of adhesion scores” value (DNBS colitis [4]) was roughly 25%.

— patent US8048924B2, “Methods and compositions employing 4-aminophenylacetic acid compounds” (Biocon Limited, priority 2001, dated 2011)
